Test results as given in patent US6849624B2, “Aromatic and heteroaromatic substituted amides” (Hoffmann-La Roche Inc., priority 2001, dated 2005).

How the values were obtained:
[1] = pharmacokinetic parameters in dogs; settings: dog, in vivo; for Vd: read-out: volume of distribution
Excerpt: (§1) The pharmacokinetic parameters of both compounds have been evaluated in both rats and dogs.

human NK1 receptor [2] = molecular target: T1, human NK1 receptor (Homo sapiens, UniProt P25103); assay: substance P induced Ca2+ influx in CHO cells expressing recombinant human NK1 receptor (FLIPR); format: cell-based; settings: increasing concentrations, CHO cells with recombinant human NK1 receptor
T1 construct: expressed in transfected cells; host or cells: CHO cells (Semliki virus expression system)
Excerpt: The activity in vitro was examined by studying its effect on substance P induced Ca^2+ influxes in CHO cells expressing the recombinant human NK1 receptor. In these cells, substance P causes a concentration dependent influx of Ca^2+ which can be measured using FLIPR technology.

NK1 receptor = molecular target: T2, NK1 receptor (Meriones unguiculatus, UniProt Q5DUB1); assay: foot-tapping behavior induced in Gerbils by i.c.v. injection of an NK1 receptor agonist; format: in vivo; settings: Gerbil; for dose calculated to inhibit 50% of the foot-tapping behavior: oral administration; for total plasma concentration required to completely block the foot-tapping behavior: total plasma level
T2 construct: from tissue; host or cells: living gerbils (brain, i.c.v. agonist injection)
Procedure: In vivo 2-(3,5-bis-trifluoromethyl-phenyl)-N-[6-(1,1-dioxo-1λ^6-thiomorpholin-4-yl)-4-o-tolyl-pyridin-3-yl]-N-methyl-isobutyramide antagonizes foot-tapping behavior induced in Gerbils with intracerebroventricular (i.c.v.) injections of an NK1 receptor agonist. The dose for this compound calculated to inhibit 50% of the foot-tapping behavior following oral administration was 0.8 mg/kg. […] Similarly, 2-(3,5-bis-trifluoromethyl-phenyl)-N-[6-(1,1-dioxo-1λ^6-thiomorpholin-4-yl)-4-(4-fluoro-2-methyl-phenyl)-pyridin-3-yl]-N-methyl-isobutyramide also antagonized NK1 agonist-induced foot-tapping in Gerbils. The dose for this compound calculated to inhibit 50% of the foot-tapping behavior following oral administration was 0.1 mg/kg. The total plasma levels that are required to completely antagonize this behavior are less than 10 ng/ml.

human NK1 receptor [3] = molecular target: T1, human NK1 receptor; assay: [3H]substance P binding to human NK1 receptor in transfected CHO cells; settings: recombinant human NK1 receptor in CHO cells, [3H]substance P 0.6 nM; read-out: affinity (pKi) for the human NK1 receptor (converted)
Procedure: The affinities of the compounds 2-(3,5-bis-trifluoromethyl-phenyl)-N-[6-(1,1-dioxo-1λ^6-thiomorpholin-4-yl)-4-o-tolyl-pyridin-3-yl]-N-methyl-isobutyramide and 2-(3,5-bis-trifluoromethyl-phenyl)-N-[6-(1,1-dioxo-1λ^6-thiomorpholin-4-yl)-4-(4-fluoro-2-methyl-phenyl)-pyridin-3-yl]-N-methyl-isobutyramide for the human NK1 receptor were evaluated in Chinese Hamster Ovary (CHO) cells transfected with the human NK1 receptor (using the Semliki Virus expression system) and radiolabelled with [^3H]substance P (final concentration 0.6 nM). Binding assays were performed in HEPES buffer (50 mM, pH 7.4) containing BSA (0.04%), leupeptin (8 μg/ml), MnCl2 (3 mM) and phosphoramidon (2 μM). Binding assays consisted of 250 μl of membrane suspension (1.25×10^5 cells/assay tube), […] of buffer of displacing agent and 125 μl of [^3H] substance P. Displacement curves were determined with at least seven concentrations of the compound. The assay tubes were incubated for 60 min at room temperature after which time the tube contents were rapidly filtered under vacuum through GF/C filters presoaked for 60 min with PEI (0.3%) with 2×2 ml washes of HEPES buffer (50 mM, pH 7.4). The radioactivity retained on the filters was measured by scintillation counting. All assays were performed in triplicate in at least 2 separate experiments. […]

[4] = pharmacokinetic parameters in rats; settings: rat, in vivo; for bioavailability: po; for half-life: read-out: terminal half-life (converted); for Vd: read-out: volume of distribution
Excerpt: as §1

T2 sequence (Q5DUB1 whole entry): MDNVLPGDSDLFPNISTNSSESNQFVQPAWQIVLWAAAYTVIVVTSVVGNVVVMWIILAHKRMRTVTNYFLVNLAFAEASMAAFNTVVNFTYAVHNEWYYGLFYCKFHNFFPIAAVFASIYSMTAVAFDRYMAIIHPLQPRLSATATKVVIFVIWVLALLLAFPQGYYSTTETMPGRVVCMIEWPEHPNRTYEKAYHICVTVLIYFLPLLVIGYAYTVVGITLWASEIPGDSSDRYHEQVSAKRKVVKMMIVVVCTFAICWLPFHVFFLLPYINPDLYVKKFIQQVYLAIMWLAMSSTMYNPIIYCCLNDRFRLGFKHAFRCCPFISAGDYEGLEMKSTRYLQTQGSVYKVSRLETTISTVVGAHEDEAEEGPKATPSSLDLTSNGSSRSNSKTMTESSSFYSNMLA
T1 sequence (P25103 whole entry): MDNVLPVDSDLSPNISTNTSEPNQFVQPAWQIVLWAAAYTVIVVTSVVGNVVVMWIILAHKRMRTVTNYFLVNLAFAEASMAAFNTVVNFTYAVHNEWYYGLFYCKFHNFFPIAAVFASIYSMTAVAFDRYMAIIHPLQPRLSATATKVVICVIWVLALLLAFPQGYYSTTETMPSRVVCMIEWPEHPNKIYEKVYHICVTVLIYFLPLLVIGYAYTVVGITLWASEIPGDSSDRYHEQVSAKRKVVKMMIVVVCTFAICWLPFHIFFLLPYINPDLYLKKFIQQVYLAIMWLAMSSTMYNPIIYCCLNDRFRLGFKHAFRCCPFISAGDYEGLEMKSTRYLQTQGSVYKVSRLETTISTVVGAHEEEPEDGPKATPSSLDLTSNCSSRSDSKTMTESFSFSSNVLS

## Cc1cc(F)ccc1-c1cc(N2CCS(=O)(=O)CC2)ncc1N(C)C(=O)C(C)(C)c1cc(C(F)(F)F)cc(C(F)(F)F)c1 [2-(3,5-Bis-trifluoromethyl-phenyl)-N-[6-(1,1-dioxo-1λ^6-thiomorpholin-4-yl)-4-(4-fluoro-2-methyl-phenyl)-pyridin-3-yl]-N-methyl-isobutyramide]
[1]
  clearance: 0.084 L/h/kg
  half-life: 56 h
  Vd: 1.5 L/kg
Human NK1 receptor [2]
  effect on substance P induced Ca2+ influx: inhibited the substance P induced Ca^2+ influx
NK1 receptor
  dose calculated to inhibit 50% of the foot-tapping behavior: 0.1 mg/kg
  total plasma concentration required to completely block the foot-tapping behavior: less than 10 ng/ml
Human NK1 receptor [3]
  Ki: 0.316 nM
[4]
  clearance: 0.018 to 0.072 L/h/kg
  bioavailability: 61%
  half-life: 21 h
  Vd: 0.7 L/kg

## Cc1ccccc1-c1cc(N2CCS(=O)(=O)CC2)ncc1N(C)C(=O)C(C)(C)c1cc(C(F)(F)F)cc(C(F)(F)F)c1 [2-(3,5-Bis-trifluoromethyl-phenyl)-N-[6-(1,1-dioxo-1λ^6-thiomorpholin-4-yl)-4-o-tolyl-pyridin-3-yl]-N-methyl-isobutyramide]
other
  melting point: 200 to 201 °C
[1]
  clearance: 0.3 L/h/kg
  half-life: 8 h
  Vd: 4 L/kg
Human NK1 receptor [2]
  effect on substance P induced Ca2+ influx: inhibited the substance P induced Ca^2+ influx
NK1 receptor
  dose calculated to inhibit 50% of the foot-tapping behavior: 0.8 mg/kg
  total plasma concentration required to completely block the foot-tapping behavior: 10 ng/mL
Human NK1 receptor [3]
  Ki: 1.26 nM
[4]
  clearance: 0.282 L/h/kg
  bioavailability: 18%
  half-life: 9 h
  Vd: 4 L/kg
